The nature of the series: In vitro half-life. The format is in vitro ADME. An excerpt:
The safety profile of TH9507 is generally good.

One compound from US8481489B2, “GH secretagogues and uses thereof” (Theratechnologies Inc., priority 2003, dated 2013) can be followed below.

Molecules are shown by their SMILES.

Turning to `CC[C@H](C)[C@H](NC(=O)[C@H](C)NC(=O)[C@H](CC(=O)O)NC(=O)[C@H](C)NC(=O)[C@@H](N)Cc1ccc(O)cc1)C(=O)N[C@@H](Cc1ccccc1)C(=O)N[C@H](C(=O)N[C@@H](CC(N)=O)C(=O)N[C@@H](CO)C(=O)N[C@@H](Cc1ccc(O)cc1)C(=O)N[C@@H](CCCNC(=N)N)C(=O)N[C@@H](CCCCN)C(=O)N[C@H](C(=O)N[C@@H](CC(C)C)C(=O)NCC(=O)N[C@@H](CCC(N)=O)C(=O)N[C@@H](CC(C)C)C(=O)N[C@@H](CO)C(=O)N[C@@H](C)C(=O)N[C@@H](CCCNC(=N)N)C(=O)N[C@@H](CCCCN)C(=O)N[C@@H](CC(C)C)C(=O)N[C@@H](CC(C)C)C(=O)N[C@@H](CCC(N)=O)C(=O)N[C@@H](CC(=O)O)C(=O)N[C@H](C(=O)N[C@@H](CCSC)C(=O)N[C@@H](CO)C(=O)N[C@@H](CCCNC(=N)N)C(=O)N[C@@H](CCC(N)=O)C(=O)N[C@@H](CCC(N)=O)C(=O)NCC(=O)N[C@@H](CCC(=O)O)C(=O)N[C@@H](CO)C(=O)N[C@@H](CC(N)=O)C(=O)N[C@@H](CCC(N)=O)C(=O)N[C@@H](CCC(=O)O)C(=O)N[C@@H](CCCNC(=N)N)C(=O)NCC(=O)N[C@@H](C)C(=O)N[C@@H](CCCNC(=N)N)C(=O)N[C@@H](C)C(=O)N[C@@H](CCCNC(=N)N)C(=O)N[C@@H](CC(C)C)C(N)=O)[C@@H](C)CC)C(C)C)[C@@H](C)O` [hGRF, hGRF(1-44)NH2, reference compound], the half-life – broadly, the time in which the quantity being followed falls by half – is 33.6 min.
